Measurements as given in publication PMC5109658, “Antibacterial and cytotoxic cytochalasins from the endophytic fungus Phomopsis sp. harbored in Garcinia kola (Heckel) nut” (BMC Complementary and Alternative Medicine, 2016).
Converted amounts (≈) assume the structure as drawn. Like-named read-outs stand apart in the source and are kept apart here.

Columns and labels:
S. flexneri SDINT = assay: Broth microdilution MIC/MBC; format: cell-based, Shigella flexneri; details: for MIC / MBC / MBC/MIC: S. flexneri SDINT; for MIC: 24 h at 37 °C; for MBC: 99.9% reduction in CFU after 24 h; for Selectivity Index S. flexneri SDINT: SI = LC50 on Vero cells / MIC
Procedure: (§1) A total of six bacterial strains were tested for their susceptibility to compounds and these strains were taken from our laboratory collection (kindly provided by Dr. T. Ramamurthy, NICED, Kolkata). Among the clinical strains of Vibrio cholerae used in this study, strains NB2 and SG24 and CO6 belonged to O1 and O139 serotypes, respectively. […]. The other strains used in this study were V. cholerae non-O1, non-O139 (strain PC2); […]. The American Type Culture Collection (ATCC) strain, Staphylococcus aureus ATCC 25923, was used for quality control. The bacterial strains were maintained on agar slant at 4 °C and subcultured on a fresh appropriate agar plates 24 h prior to any antibacterial test. The Mueller Hinton Agar (MHA) was used for the activation of bacteria. The Mueller Hinton Broth (MHB) and nutrient agar (Hi-Media) were used for the MIC and MBC determinations respectively.
(§2) Suspensions of bacteria were prepared in MHB from cells arrested during their logarithmic phase growth (4 h) on MHB at 37 °C. The turbidity of the microbial suspension was read spectrophotometrically at 600 nm and adjusted to an OD of 0.1 with MHB, which is equivalent to 1 × 10^8 CFU/mL. From this prepared solution, other dilutions were made with MHB to yield 1x10^6 CFU/mL.
(§3) MIC and MBC of compounds 1–3 were assessed using the broth microdilution method recommended by the National Committee for Clinical Laboratory Standards with slight modifications. Each test sample was dissolved in dimethylsulfoxide (DMSO) to give a stock solution. The 96-well round bottom sterile plates were prepared by dispensing 180 μL of the inoculated broth (1x10^6 CFU/mL) into each well. A 20 μL aliquot of the stock solution of compound was added. The concentrations of sample tested were 0.125, 0.25, 0.50, 1, 2, 4, 8, 16, 32, 64, 128, 256 and 512 μg/mL. […] Dilutions of tetracycline and ampicillin served as positive controls, while broth with 20 μL of DMSO was used as negative control. The ATCC strain Staphylococcus aureus ATCC 25923 was included for quality assurance purposes. Plates were covered and incubated for 24 h at 37 °C. After incubation, minimum inhibitory concentrations (MIC) were read visually; all wells were plated to nutrient agar (Hi-Media) and incubated. The minimal bactericidal concentration (MBC) was defined as a 99.9% reduction in CFU from the starting inoculums after 24 h incubation interval.

S. aureus ATCC 25923 = assay: Broth microdilution MIC/MBC; format: cell-based, Staphylococcus aureus; details: for MBC/MIC / MBC / MIC: S. aureus ATCC 25923; for MBC / MIC: Staphylococcus aureus, ATCC25923; for MBC: 99.9% reduction in CFU after 24 h; for MIC: 24 h at 37 °C; for Selectivity Index S. aureus ATCC 25923: SI = LC50 on Vero cells / MIC
Procedure: as §1, §2, §3

V. cholerae NB2 = assay: Broth microdilution MIC/MBC; format: cell-based, Vibrio cholerae; details: for MIC / MBC / MBC/MIC: V. cholerae NB2; for MIC: 24 h at 37 °C; for MBC: 99.9% reduction in CFU after 24 h; for Selectivity Index V. cholerae NB2: SI = LC50 on Vero cells / MIC
Procedure: as §1, §2, §3

V. cholerae PC2 = assay: Broth microdilution MIC/MBC; format: cell-based, Vibrio cholerae; details: for MIC: 24 h at 37 °C; for MBC: 99.9% reduction in CFU after 24 h
Procedure: as §1, §2, §3

V. cholerae SG24 = assay: Broth microdilution MIC/MBC; format: cell-based, Vibrio cholerae; details: for MBC / MIC: Vibrio cholerae; for MBC: 99.9% reduction in CFU after 24 h; for MIC: 24 h at 37 °C
Procedure: as §1, §2, §3

V. cholerae CO6 = assay: Broth microdilution MIC/MBC; format: cell-based, Vibrio cholerae; details: for MBC/MIC / MBC / MIC: V. cholerae CO6; for MBC / MIC: Vibrio cholerae; for MBC: 99.9% reduction in CFU after 24 h; for MIC: 24 h at 37 °C; for Selectivity Index V. cholerae CO6: SI = LC50 on Vero cells / MIC
Procedure: as §1, §2, §3

MTT cytotoxicity assay [1] = format: cell-based; details: African green monkey, Vero cells, normal non-cancer cells, mean ± SD, read-out: Cytotoxicty (LC50) Vero cells
Procedure: (§4) HeLa (Human cervical cancer cell line, ATCC No. CCL-2) and Vero cells (African green monkey kidney cells, normal non-cancer cells, ATCC No. CCL-81), obtained from the American Type Culture Collection (ATCC) were used in this study. Cytotoxic activity was determined using the 3-(4,5-dimethylthiazol-2-yl)-2,5-diphenyltetrazolium bromide (MTT, Sigma, USA) assay reported by Mosmann for the HeLa and Vero cells. This cell viability assay is based on living cell‘s property to transform the MTT dye tetrazolium ring into a purple-colored formazan structure due to the action of mitochondrial and other dehydrogenases inside the cell. The color intensity yielded by the cell population is directly proportional to the number of viable cells, and one can quantify the absorbance measurements using mathematical parameters. Each test sample was dissolved in dimethylsulfoxide (DMSO) to give a stock solution. Compounds 1–3 were prepared from the stock solutions by serial dilution in RPMI 1640 to give a volume of 100 μL in each well of a microtiter plate (96-well). Each well was filled with 100 μL of cells at 2 × 10^5 cells/mL. The assay for each concentration of compound was performed in triplicates and the culture plates were kept at 37 °C with 5% (v/v) CO2 for 24 h. After removing the supernatant of each well and washing twice by PBS, 20 μL of MTT solution (5 mg/mL in PBS) and 100 μL of medium were then introduced. After 4 h of incubation, 100 μL of DMSO were added to each well to dissolve the formazan crystals and the absorbance values at 490 nm were measured with a microplate reader (Bio-RAD 680, USA). The relative cell viability (%) was expressed as a relative percentage of treated cells to the untreated control cells (TC/UC × 100). The rate of cell inhibition was calculated using the following formula: inhibition rate = [1- (ODtest/ODnegative control)] × 100%. The LC50 values were calculated as the concentration of test sample resulting in a 50% reduction of absorbance compared to untreated cells. Cells treated with 5-fluorouridine + RPMI 1640 served as positive control while cells left untreated + 1% (v/v) DMSO + RPMI 1640 were used as negative control.

MTT cytotoxicity assay [2] = format: cell-based, Human; details: human, HeLa cells; MTT, 24 h, mean ± SD; read-out: Cytotoxicty (LC50) HeLa cells
Procedure: as §4

HeLa cells = assay: MTT cytotoxicity assay; format: cell-based, Human; details: SI = LC50 on Vero cells / LC50 on HeLa cells
Procedure: as §4

Hemolytic assay = format: cell-based; details: male, 1% human red blood cell suspension, 512 μg/mL (highest concentration tested), 1% human red blood cells, PBS pH 7.4, 37 °C
Procedure: Whole blood (10 mL) from a healthy person was collected into a conical tube containing heparin as an anticoagulant. Erythrocytes were harvested by centrifugation at room temperature for 10 min at 1,000 × g and were washed three times in PBS solution. The top layer (plasma) and the next, milky layer (buffy coat with a layer of platelets on top of it) were then carefully aspirated and discarded. The cell pellet was resuspended in 10 mL of PBS solution and mixed by gentle aspiration with a Pasteur pipette. This cell suspension was used immediately.
For the normal human red blood cells, which were in suspension, the cytotoxicity was evaluated as previously described. Compounds 1–3, at concentrations ranging from 32 to 512 μg/mL, were incubated with an equal volume of 1% human red blood cells in phosphate buffered saline (10 mM PBS, pH 7.4) at 37 °C for 1 h. Tetracycline was tested simultaneously. Non-hemolytic and 100% hemolytic controls were the buffer alone and the buffer containing 1% Triton X-100, respectively. Cell lysis was monitored by measuring the release of hemoglobin at 595 nm with a spectrophotometer (Thermo Scientific, USA). Percent hemolysis was calculated as follows: [(A595 of sample treated with compound - A595 of sample treated with buffer)/(A595 of sample treated with Triton X-100 – A595 of sample treated with buffer)] x 100.

[3] = test system: studied microorganisms (six bacterial strains); assay: Antibacterial spectrum over the six tested strains (broth microdilution); format: cell-based; details: out of 6 strains; concentrations up to 512 μg/mL
Procedure: as §1, §3

[4] = Shigella flexneri, read-out: MIC
[5] = Vibrio cholerae, V. cholerae PC2
[6] = Vibrio cholerae, V. cholerae PC2, read-out: MIC

SMILES	MBC (S. flexneri SDINT; Shigella flexneri) [µg/mL]	MIC (S. flexneri SDINT; [4]) [µg/mL]	MBC/MIC (S. aureus ATCC 25923)	MBC (S. aureus ATCC 25923) [µg/mL]	MIC (S. aureus ATCC 25923) [µg/mL]	MBC (V. cholerae NB2; Vibrio cholerae) [µg/mL]	MIC (V. cholerae NB2; Vibrio cholerae, read-out: MIC) [µg/mL]	MBC (V. cholerae PC2; [5]) [µg/mL]	MIC (V. cholerae PC2; [6]) [µg/mL]	MBC (V. cholerae SG24) [µg/mL]	MIC (V. cholerae SG24) [µg/mL]	MBC/MIC (V. cholerae CO6)	MBC (V. cholerae CO6) [µg/mL]	MIC (V. cholerae CO6) [µg/mL]	MBC/MIC (S. flexneri SDINT)	Selectivity Index S. flexneri SDINT (S. flexneri SDINT)	Selectivity Index S. aureus ATCC 25923 (S. aureus ATCC 25923)	CC50 at 24 h (MTT cytotoxicity assay [1]) [µg/mL]	CC50 at 24 h (MTT cytotoxicity assay [2]) [µg/mL]	Selectivity Index HeLa cells (HeLa cells)	also measured
CC1(C)S[C@@H]2[C@H](NC(=O)[C@H](N)c3ccccc3)C(=O)N2[C@H]1C(=O)O [Ampicillin, reference compound]	> 512	> 512	1	16 (≈ 45.8 µM)	16 (≈ 45.8 µM)	> 512	> 512	> 512	> 512	16 (≈ 45.8 µM)	16 (≈ 45.8 µM)	1	16 (≈ 45.8 µM)	16 (≈ 45.8 µM)							MIC (S. flexneri SDINT): >512 µg/mL; MIC (V. cholerae NB2): >512 µg/mL; MIC (V. cholerae PC2; V. cholerae PC2): >512 µg/mL; MBC/MIC (V. cholerae SG24): 1
C=C1[C@@H](C)C2[C@H](Cc3ccccc3)NC(=O)[C@]23[C@H](O)/C=C/[C@](C)(OC)C[C@@H](C)C/C=C/[C@@H]3[C@@H]1O (stereo partly shown) [Compound 1, 18-metoxycytochalasin J]	128 (≈ 275 µM)	128 (≈ 275 µM)	1	128 (≈ 275 µM)	128 (≈ 275 µM)	512 (≈ 1100 µM)	512 (≈ 1100 µM)	> 512	> 512	> 512	> 512	1	512 (≈ 1100 µM)	512 (≈ 1100 µM)	1	0.72	0.72	93 ± 2.54 (≈ 200 µM)	8.18 ± 0.92 (≈ 17.6 µM)	11.37	Selectivity Index V. cholerae NB2 (V. cholerae NB2): 0.18; MBC/MIC (V. cholerae NB2): 1; Selectivity Index V. cholerae CO6 (V. cholerae CO6): 0.18; hemolysis at 1 h, 512 μg/mL (Hemolytic assay): < 10%; share of the studied microorganisms on which inhibitory effects were noted [3]: 66.66%
C=C1[C@@H](C)C2[C@H](Cc3ccccc3)NC(=O)[C@@]23C(/C=C/C[C@H](C)C[C@@](C)(O)/C=C/[C@H]3OC(C)=O)[C@@H]1O (stereo partly shown) [Compound 2, cytochalasin H]	128 (≈ 259 µM)	128 (≈ 259 µM)	1	256 (≈ 519 µM)	256 (≈ 519 µM)	512 (≈ 1040 µM)	512 (≈ 1040 µM)	256 (≈ 519 µM)	256 (≈ 519 µM)	> 512	> 512	1	512 (≈ 1040 µM)	512 (≈ 1040 µM)	1	1.00	0.50	129.1 ± 1.2 (≈ 262 µM)	35.7 ± 1.31 (≈ 72.3 µM)	3.61	Selectivity Index V. cholerae NB2 (V. cholerae NB2): 0.25; MBC/MIC (V. cholerae NB2): 1; Selectivity Index V. cholerae PC2 (V. cholerae PC2; SI = LC50 on Vero cells / MIC): 0.50; MBC/MIC (V. cholerae PC2; V. cholerae PC2): 1; Selectivity Index V. cholerae CO6 (V. cholerae CO6): 0.25; hemolysis at 1 h, 512 μg/mL (Hemolytic assay): 20.1%; share of the studied microorganisms on which inhibitory effects were noted [3]: 83.33%
